The values that follow are results of earlier work, collected in patent US20220175673A1, “SURGICAL DEVICE” (Saint Anthony Biomedical, LLC, priority 2017, published 2022).

The test system of data set [1] is MDR isolates (MRSA, E. faecium, K pneumoniae, E. aerogenes, E. coli and A. baumani). The conditions noted are these: 0.05% CHG, 1-minute exposure.
Data set [2] deals with Epidermophyton occosum, Microsporum gypseum, M canis, Trichophyton mentagrophytes.
Data set [3] concerns Staphylococcus aureus, S. epidermidis, S. haemolyticus, S. hominis, S. simulans. The conditions noted are these: both oxacillin-resistant and oxacillin-susceptible staphylococci.
For data set [4], the system named is CMV, HIV, HSV-1, HSV-2, influenza virus, parainfluenza virus, variola virus. The conditions noted are these: viruses with a lipid component in outer coat or an outer envelope.
The test system of data set [5] is Candida albicans, C. dubliniensis, C. glabrata, C. gullermondii, C. pseudotropicalis, C. krusei, C. lusitaniae, C. tropicalis.
The next data set deals with Veillonella. To be noted: compared with other anaerobic bacteria.
The subject of data set [6] is Enterococcus, including E. faecalis and E. faecium. To be noted: vancomycin-susceptible and vancomycin-resistant strains.
Data set [7] has as its system Streptococcus mutans, S. pyogenes, S. salivarius, S. sanguis. To be noted: Gram-positive aerobic bacteria.

With `N=C(NCCCCCCNC(=N)NC(=N)Nc1ccc(Cl)cc1)NC(=N)Nc1ccc(Cl)cc1.O=C(O)[C@H](O)[C@@H](O)[C@H](O)[C@H](O)CO.O=C(O)[C@H](O)[C@@H](O)[C@H](O)[C@H](O)CO` [CHG, chlorhexidine gluconate], the “log-reduction in MDR isolates” value in data set [1] is “greater than or equal to 99.99%”.
In the case of `[H]/N=C(\N/C(=N/[H])NCCCCCCNC(=N)NC(=N)Nc1ccc(Cl)cc1)Nc1ccc(Cl)cc1` [Chlorhexidine, chlorhexidine], the activity result is on record as “some activity” in [2]; “active” in [3]; “some activity” in data set [5]; “less active” in the data set with Veillonella; “active” in [6]; “highly active” in data set [7]. Moreover, in the data set on keratinocytes, the effect on keratinocytes result is “cytotoxic effect”. Further, the “effect on wound healing” value in the data set on wound healing is recorded as “inhibitory effect”. The antiviral activity result in [4] was “appears to have antiviral activity”.
